The source of these data is patent EP0051084A1, “Substituted 1H-1,2,4-triazoles” (AMERICAN CYANAMID COMPANY, priority 1980, dated 1982).

Structures are written as SMILES.

The first experiment relates to migration of macrophages. Kind of experiment: Migratory Inhibition Test (capillary tube migration assay for MIF inhibitors). It counts as cell-based, Male Hartley guinea pigs. More on the design: key: Active: Greater than 15% reversal of inhibition, c-b/a-b. The conditions noted are these: Dose 10 mcg./ml.; guinea pig peritoneal cells, 37°C. for 24 hours. The text has this: Migratory Inhibition Test
Rheumatoid arthritis is a chronic inflammatory disease that is characterized by the migration of lymphocytes, macrophages and polymorphonuclear leukocytes to the sites of inflammation. The migration of lymphocytes and macrophages and their multiplication in situ is one reason for the very large increase in size of the normally thin synovial membrane which encloses the joint space. This transformed synovial membrane slowly grows over the articular surfaces and causes the destruction of the articular cartilage and other connective tissue structures of the joint. One of the mechanisms for the destruction of articular cartilage by the synovium is through the release of various hydrolytic enzymes by the resident macrophages which have been immobilized and activated by migration inhibitory factor (MIF). Macrophages stimulated by MIF are termed "activated macrophages" and undergo the following changes: (a) increased glucose oxidation, (b) increased ruffling of plasma membrane and increased spreading of cells, (c) synthesis and secretion of neutral proteases, (d) release of preformed lysosomal enzymes, (e) decreased migration from a capillary tube. […] The mechanism of cartilage destruction can be pictured as follows: [formula]
Drugs that can therefore block the release of MIF by lymphocytes or the activation of macrophages by MIF may be clinically effective in retarding the destructive joint damage which occurs in rheumatoid arthritis. Drugs can be tested as MIF inhibitors by using the capillary tube migration assay as follows: Male Hartley guinea pigs, weighing between 300 and 600 grams, were injected intraperitoneally with 25 ml. of Marcal 52 Oil@ (Humble Oil Co.). Three to four days later the guinea pigs were decapitated, the peritoneum opened and 50 ml. of cold Hank's solution added to the peritoneum. The Hank's solution containing the cell suspension was then aspirated into a separatory funnel. This procedure was repeated twice. […] Viability of the cells was then determined using trypan blue. […]
As to `O=[N+]([O-])c1ccc(-c2ncnn2-c2ccc(Br)cc2)cc1` [1-(p-Bromophenyl)-5-(p-nitrophenyl)-1H-1,2,4-triazole], the “Result (reversal of antigen inhibition of macrophage migration)” value was “Active”. On the same count and under the same terms, then `c1ccc(-n2ncnc2-c2ccncc2)cc1` [4-(1-Phenyl-1H-1,2,4-triazol-5-yl)pyridine], with “Active”; and `Nc1ccc(-c2ncnn2-c2ccc(Br)cc2)cc1` [5-(p-Aminophenyl)-l-(p-bromophenyl)-lH-l,2,4-triazole], with “Active”.

The subject of the next experiment is carrageenin inflamed feet. Kind of experiment: Carrageenin Edema Assay. It counts as in vivo, Royal Hart, Wistar strain rats. More on the design: key: Active: If the mean ratio of test 1 and 2 is equal to or greater than 1.43, the compound is considered active. The conditions noted are these: rats, 250 mg./kg. by gavage; measured 5 hours after drug administration (4 hours after carrageenin challenge). On the procedure: Royal Hart, Wistar strain rats ranging in weight from 80 to 90 grams were used. The rats were fasted overnight prior to dosing but had free access to water. The test compounds were administered in aqueous suspension, by gavage, in a volume of 1.7 ml. per 50 grams of rat [corresponds to hydration volume used by Winter, et al., Proc. Soc. Exp. Biol. & Med., Ill, 544-547 (1962)]. The dose of all compounds was 250 mg./kq. The phlogistic agent used was carrageenin prepared as a sterile 1% suspension in 0.9% aqueous sodium chloride for routine testing. A volume of 0.05 ml. was injected into the plantar tissue of the right hind paw. Measurements were made 5 hours after drug administration (4 hours after carrageenin challenge). The paw of the unanesthetized rat was immersed in mercury exactly to an ink mark on the skin over the lateral malleolus. The mercury was contained in a glass cylinder 25 x 60 mm. The mercury column was connected with a Statham pressure transducer (model P23BB), range 0-5 cm. mercury. The output from the transducer was led through a model 260BLH signal conditioning unit and visualized by digital indicator. Volumes of both the normal and carrageenin inflamed feet were determined. The difference between the two measurements was considered to be the increased edema due to the carrageenin administration. Results were expressed as a control (C)/treated (T) efficacy ratio. (The ratio of mean edema volume of 8 control rats over the mean edema volume of 2 treated rats.) If the C/T ratio is equal to or greater than 1.41, the test is repeated. If the mean ratio of test 1 and 2 is equal to or greater than 1.43, the compound is considered active. The results of this test with typical compounds of this invention are recorded in Table
In general terms: The carrageenan paw model is a standard test of acute inflammation.
For the compound `c1ccc(-c2ncnn2-c2ccccc2)cc1` [1,5-Diphenyl-1H-1,2,4-triazole, 1,5-Diphenyl-lH-1,2,4-triazole], the “Result (control (C)/treated (T) efficacy ratio of edema volume)” value was “Active”. Consider `COc1cc(-c2nc(C)nn2-c2ccc(Br)cc2)cc(OC)c1OC` [1-(p-Bromophenyl)-3-methyl-5-(3,4,5- -trimethoxyphenyl)-lH-1,2,4-triazole], for which the “Result (control (C)/treated (T) efficacy ratio of edema volume)” value was “Active”. `Clc1ccc(-n2ncnc2-c2cnccn2)cc1` [2-fl-(p-Chlorophenyl)-lH-1,2,4-triazol-5-yllpyrazine]: the “Result (control (C)/treated (T) efficacy ratio of edema volume)” value is “Active”. Turning to `c1cncc(-c2nnc[nH]2)c1` [3-(4H-1,2,4-Triazol-3-yl)-pyridine], the “Result (control (C)/treated (T) efficacy ratio of edema volume)” value was “Active”. `c1ccc(-n2ncnc2-c2ccncc2)cc1` [4-(1-Phenyl-1H-1,2,4-triazol-5-yl)pyridine]: the “Result (control (C)/treated (T) efficacy ratio of edema volume)” value was “Active”. Take `Fc1ccc(-n2ncnc2-c2ccncc2)cc1` [4-[1-(p-Fluorophenyl)-1H-1,2,4-triazol-5-yl]pyridine]: the “Result (control (C)/treated (T) efficacy ratio of edema volume)” value is “Active”. Turning to `O=[N+]([O-])c1ccc(-n2ncnc2-c2cnccn2)cc1` [(1-(p-Nitrophenyl)-1H-1,2,4-triazol-5-yl]pyrazine], the “Result (control (C)/treated (T) efficacy ratio of edema volume)” value is on record as “Active”. Take `O=S(=O)(c1ccc(-n2ncnc2-c2cnccn2)cc1)C(F)F` [{1-[p-(Difluoromethylsulfonyl)phenyl]-1H-1,2,4--triazol-5-yl}pyrazine]: the “Result (control (C)/treated (T) efficacy ratio of edema volume)” value is on record as “Active”.

The subject of the next experiment is Adjuvant induced experimental polyarthritis. Kind of experiment: Adjuvant Arthritis Assay. The format is in vivo, Royal Hart Wistar strain rats. More on the design: key: Active: If the mean RSA of all three tests is less than 0.753, the compound is considered active. The conditions noted are these: rats, 50 mg./kg. orally once daily on days 0 through 13 post-challenge; injected paw measured on 14th day; RSA = treated/control. From the text:
Adjuvant induced experimental polyarthritis is a specific systemic disease of the rat which shares interesting similarities with rheumatoid arthritis. Specifically, the histology of the two diseases bears a remarkable resemblence as shown by C. M. Pearson, et al, Am. J. Path., 42, 73 (1963). E. M. Glenn, Am. J. Vet. Res., 27, (116), 339 (1966) has classified adjuvant induced polyarthritis as a crippling and permanent deformity resulting from diffuse connective tissue involvement around certain susceptible joints in the rat. Zahiri, et al., Can. Med. Ass. J., 101, 269 (1969) have shown that the fusiform swelling of the distal joints is associated with edema, congestion and synovitis including pannus formation, all of which precede the ultimate destruction of bone and cartilage. Furthermore, Zahiri, et al., indicate that the cartilage destruction in the joint is due to an invasive pannus which originates in the marginal synovium and extends across the articular surface to erode it. […] The most pointed reference showing the relationship between arthritis and joint deterioration is "An X-Ray Analysis of Adjuvant Arthritis in the Rat; the Effect of Prednisolone and Indomethacin", Blackham, et al., Agents and Action, 7 (No. 1), 145-151 (1977). In a similar manner, inhibition of the progress of arhtritis in paws of rats treated with the compounds of this invention also lessens associated joint deterioration.
Groups of three Royal Hart Wistar strain rats, weighing 200 + 10 g. each were injected intradermally in the right hind paw with Freund's adjuvant (dried human tubercle bacilli in a mineral oil vehicle) at a dose of 2 mg./kg. of body weight. Test compounds were administered orally in a 1.5% starch vehicle at 50 mg./kg. of body weight once daily on days 0 through 13 post-challenge. Control rats were treated in a similar manner, buty given only starch vehicle. On the l4th day post-challenge the diameter of the injected paw (primary lesion) was measured by micrometer caliper. From these measurements of inflamed paws a determination was made of the relative surface area (RSA). This is a ratio of the mean surface area of the paws of 3 treated rats/mean surface area of the paws of 60 control rats. If the RSA is equal to or less than 0.76, the compound is retested. After the second test, the mean RSA for the rat paws from both tests is calculated and if it is equal to or less than 0.736 the compound is tested a third time. If the mean RSA of all three tests is less than 0.753, the compound is considered active.
In the case of `N#CCC(=O)Nc1ccc(-c2ncnn2-c2ccc(F)cc2)cc1`, the “Result (relative surface area (RSA) of injected paw)” value is “Active”. For `Nc1ccc(-n2ncnc2-c2ccc(F)cc2)cc1` [1-(p-AminopUhenyl)-5-(p-fluorophenyl)-1H-1,2,4-triazole], the “Result (relative surface area (RSA) of injected paw)” value is “Active”.

In the case of `O=[N+]([O-])c1ccc(-c2ncnn2-c2ccc(Br)cc2)cc1` [1-(p-Bromophenyl)-5-(p-nitrophenyl)-1H-1,2,4-triazole], the “Result (relative surface area (RSA) of injected paw)” value was “Active”. Still for that read-out and setting: then `O=[N+]([O-])c1ccc(-c2ncnn2-c2ccc(F)cc2)cc1` [1-(p-Fluorophenyl)-5-(p-nitrophenyl)-1H-1,2,4-triazole], with “Active”; and `CN(C)C=Nc1ccc(-c2ncnn2-c2ccc(F)cc2)cc1` [1-(p-Fluorophenyl)-5-[p-[(dimethylaminomethylene)-amino]phenyl]-1H-1,2,4-triazole], with “Active”; and `Nc1ccc(-c2ncnn2-c2ccc(Cl)cc2)cc1` [5-(p-Aminophenyl)-1-(p-chlorophenyl)-1H-1,2,4-triazole], with “Active”. With `Nc1ccc(-c2ncnn2-c2ccc(F)cc2)cc1` [5-(p-Aminophenyl)-1-(p-fluorophenyl)-1H-1,2,4-triazole], the “Result (relative surface area (RSA) of injected paw)” value is “Active”. Regarding `Nc1ccc(-c2ncnn2-c2ccccc2F)cc1` [5-(p-Aminophenyl)-l-(o-fluorophenyl)-lH-l,2,4-triazole], the “Result (relative surface area (RSA) of injected paw)” value is on record as “Active”. As for `Nc1ccc(-c2ncnn2-c2ccc(Br)cc2)cc1` [5-(p-Aminophenyl)-l-(p-bromophenyl)-lH-l,2,4-triazole], the “Result (relative surface area (RSA) of injected paw)” value is “Active”. On the same count and under the same terms, then `O=[N+]([O-])c1ccc(-n2ncnc2-c2ccc(F)cc2)cc1` [5-(p-Fluorophenyl)-1-(p-nitrophenyl)-1H-1,2,4-triazole], with “Active”. Still for that read-out and setting: then `O=[N+]([O-])c1ccc(-c2ncnn2-c2ccccc2)cc1` [l-Phenyl-5-(p-nitrophenyl)-lH-l,2,4-triazole], with “Active”.
